Experiments:
[1] = tested on: patients with type 2 diabetes mellitus; assay: Phase 1 clinical trial comparing solid and liquid oral dosage forms, single 300 mg dose, crossover; assay type: in vivo, human; conditions: single doses
Procedure: This invention is further based on findings obtained from a randomized, double-blind, placebo controlled Phase 1 clinical trial that compared liquid and solid dosage forms of the compound.
Patients (n=12) with type 2 diabetes mellitus received one of three oral formulations of 300 mg of (2S,3R,4R,5S,6R)-2-(4-chloro-3-(4-ethoxybenzyl)phenyl)-6-(methylthio)tetrahydro-2H-pyran-3,4,5-triol before breakfast: as two 150 mg tablets, six 50 mg tablets, or 30 mL of 10 mg/mL solution in a randomized sequence implementing a Latin Square crossover design, with a 5-day washout between doses.
Changes in urinary glucose excretion, fasting plasma glucose (FPG), insulin, postprandial glucose (PPG), peptide YY (PYY), and glucagon-like peptide-1(GLP-1) were measured at days −1, 1, 6, and 11.

[2] = tested on: human SGLT1 / human SGLT2; conditions: ratio of human SGLT1 IC50 to human SGLT2 IC50
Procedure: HEK293 cells were transfected with the human HA-SGLT2-pIRESpuro2 vector and the bulk stable cell line was selected in presence of 0.5 μg/ml of puromycin. Human HA-SGLT2 cells were maintained in DMEM media containing 10% FBS, 1% GPS and 0.5 μg/ml of puromycin.
The HEK293 cells expressing the human HA-SGLT2 were seeded in 384 well plates (30,000 cells/well) in DMEM media containing 10% FBS, 1% GPS and 0.5 μg/ml of puromycin, then incubated overnight at 37 C, 5% CO2. Cells were then washed with uptake buffer (140 mM NaCl, 2 mM KCl, 1 mM CaCl2, 1 mM MgCl2, 10 mM HEPES, 5 mM Tris, 1 mg/ml bovine serum albumin (BSA), pH 7.3). Twenty microliters of uptake buffer with or without testing compounds were added to the cells. […] After washing the cells with uptake buffer, scintillation fluid was added (40 microliters/well) and ^14C-AMG uptake was measured by counting radioactivity using a scintillation coulter (TopCoulter NXT; Packard Instruments).
Cells were then washed with uptake buffer (140 mM NaCl, 2 mM KCl, 1 mM CaCl2, 1 mM MgCl2, 10 mM HEPES, 5 mM Tris, 1 mg/ml bovine serum albumin (BSA), pH 7.3). […] After washing the cells with uptake buffer, scintillation fluid was added (40 microliters/well) and ^14C-AMG uptake was measured by counting radioactivity using a scintillation coulter (TopCoulter NXT; Packard Instruments).

[3] = tested on: patients with type 2 diabetes mellitus; assay: Phase 2a clinical trial, liquid oral dosage form once daily for 28 days; assay type: in vivo, human
Procedure: Certain aspects of this invention may be understood with reference to the figures. FIGS. 1-10 show results obtained from a randomized, double-blind, placebo controlled Phase 2a clinical trial, wherein 150 mg and 300 mg doses of (2S,3R,4R,5S,6R)-2-(4-chloro-3-(4-ethoxybenzyl)phenyl)-6-(methylthio)tetrahydro-2H-pyran-3,4,5-triol were orally administered in solution once daily to patients with type 2 diabetes mellitus. FIG. 11 provides results obtained from a Phase 1 clinical trial, wherein both solid and liquid oral dosage forms of the compound were administered to patients with type 2 diabetes mellitus.
This invention is based, in part, on findings obtained from a randomized, double-blind, placebo controlled Phase 2a clinical trial, wherein 150 mg/day and 300 mg/day doses of a compound of the invention were orally administered in a liquid to patients with type 2 diabetes mellitus. The compound was (2S,3R,4R,5S,6R)-2-(4-chloro-3-(4-ethoxybenzyl)phenyl)-6-(methylthio)tetrahydro-2H-pyran-3,4,5-triol, which has the structure:
Patients (n=36) with type 2 diabetes mellitus received one of two oral doses of (2S,3R,4R,5S,6R)-2-(4-chloro-3-(4-ethoxybenzyl)phenyl)-6-(methylthio)tetrahydro-2H-pyran-3,4,5-triol, given as 150 mg or 300 mg once daily, or matching placebo, for 28 days in solution.
In this study, patients on metformin were taken off of the drug 16 days prior to day 0, the day dosing first began.

[4] = 150 mg and 300 mg once daily, 28 days

## CCOc1ccc(Cc2cc([C@@H]3O[C@H](SC)[C@@H](O)[C@H](O)[C@H]3O)ccc2Cl)cc1 [(2S,3R,4R,5S,6R)-2-(4-chloro-3-(4-ethoxybenzyl)phenyl)-6-(methylthio)tetrahydro-2H-pyran-3,4,5-triol]
[1]
  FPG and PPG levels: markedly improved
  GLP-1 and PYY levels: increased
[2]
  SGLT1 IC50: SGLT2 IC50 ratio: about 20
[3]; 150 mg and 300 mg once daily, 28-day dosing period, preliminary data
  glucosuria compared to placebo: significant and sustained glucosuria
[3]; [4]
  adverse events: generally mild and evenly distributed across all dose groups, including placebo
  dose-limiting toxicities: no evidence of dose-limiting toxicities
[3]; 150 mg/day and 300 mg/day treatment groups vs placebo
  glucose tolerance (FIG. 2): greater glucose tolerance than those in the placebo group
[3]; 150 mg/day and 300 mg/day treatment groups, upon treatment
  plasma glucose levels (FIG. 1): rapid, statistically significant decrease
[3]; 150 mg/day and 300 mg/day vs placebo
  post-prandial glucose levels (FIG. 5): rapid, statistically significant decrease
[3]; 150 mg/day and 300 mg/day vs placebo, day 27
  insulin sensitivity, homeostatic model assessment (HOMA) (FIG. 4): improved insulin sensitivity compared to placebo
[3]; 150 mg/day and 300 mg/day, after 28 days of dosing, vs placebo
  mean diastolic and systolic blood pressures (FIGS. 8 and 9): decreased mean diastolic and systolic blood pressures
[3]; 150 mg/day and 300 mg/day, day 28 vs baseline
  mean arterial pressures (FIG. 10): also decreased
[3]; 150 mg/day and 300 mg/day, four weeks
  mean HbA1c levels (FIG. 7): marked decrease
